We go through 41 molecules from patent publication US10233173B2, “Substituted 1,2,3-triazoles as NR2B-selective NMDA modulators” (JANSSEN PHARMACEUTICA NV, priority 2016, dated 2019).

Structures are written as SMILES.

The IC50 is the concentration that inhibits the measured activity by half.

Chain of human GluN1/GluN2B NMDA receptors (Q13224 27-1484, other chains not shown): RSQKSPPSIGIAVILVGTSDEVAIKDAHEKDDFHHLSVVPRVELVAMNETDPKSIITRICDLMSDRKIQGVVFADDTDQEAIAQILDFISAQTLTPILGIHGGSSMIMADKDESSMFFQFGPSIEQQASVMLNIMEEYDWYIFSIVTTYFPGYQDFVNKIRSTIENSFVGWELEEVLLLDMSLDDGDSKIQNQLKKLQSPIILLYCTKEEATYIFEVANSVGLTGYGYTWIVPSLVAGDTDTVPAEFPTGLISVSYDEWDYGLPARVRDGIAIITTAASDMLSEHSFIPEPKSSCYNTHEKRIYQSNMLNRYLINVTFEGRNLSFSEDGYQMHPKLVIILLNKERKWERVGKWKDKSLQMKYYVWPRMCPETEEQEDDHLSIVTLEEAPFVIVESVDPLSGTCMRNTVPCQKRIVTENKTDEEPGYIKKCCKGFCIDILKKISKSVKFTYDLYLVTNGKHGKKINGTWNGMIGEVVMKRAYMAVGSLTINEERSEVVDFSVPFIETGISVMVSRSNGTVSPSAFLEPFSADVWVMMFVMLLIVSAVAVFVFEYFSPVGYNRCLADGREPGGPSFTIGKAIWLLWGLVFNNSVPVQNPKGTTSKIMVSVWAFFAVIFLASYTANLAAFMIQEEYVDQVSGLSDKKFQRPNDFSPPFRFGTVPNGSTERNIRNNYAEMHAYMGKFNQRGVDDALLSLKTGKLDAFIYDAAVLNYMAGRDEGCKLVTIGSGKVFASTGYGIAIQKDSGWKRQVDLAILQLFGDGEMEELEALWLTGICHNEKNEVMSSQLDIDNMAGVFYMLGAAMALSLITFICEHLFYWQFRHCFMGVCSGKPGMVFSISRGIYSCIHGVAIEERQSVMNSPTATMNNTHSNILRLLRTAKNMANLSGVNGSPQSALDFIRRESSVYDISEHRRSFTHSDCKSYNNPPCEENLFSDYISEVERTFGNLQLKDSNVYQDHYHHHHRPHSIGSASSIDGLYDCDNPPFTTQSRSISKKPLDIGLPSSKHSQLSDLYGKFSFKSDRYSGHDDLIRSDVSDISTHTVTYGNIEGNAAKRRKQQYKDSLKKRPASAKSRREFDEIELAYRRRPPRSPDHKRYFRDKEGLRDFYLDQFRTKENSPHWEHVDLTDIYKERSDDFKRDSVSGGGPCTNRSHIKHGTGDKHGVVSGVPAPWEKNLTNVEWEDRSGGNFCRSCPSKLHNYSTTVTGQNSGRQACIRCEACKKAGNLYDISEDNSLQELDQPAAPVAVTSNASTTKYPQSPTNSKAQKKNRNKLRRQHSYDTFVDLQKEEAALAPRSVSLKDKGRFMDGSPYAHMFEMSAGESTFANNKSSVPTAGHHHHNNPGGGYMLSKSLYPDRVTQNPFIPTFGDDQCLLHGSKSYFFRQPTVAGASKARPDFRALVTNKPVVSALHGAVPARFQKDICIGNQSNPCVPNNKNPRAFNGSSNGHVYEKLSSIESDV

The assay concerns the target human GluN1/GluN2B NMDA receptors (Homo sapiens, UniProt Q05586+Q13224). Briefly: Cell-based calcium flux (FLIPR) assay on cloned human NR1/NR2B ion channels expressed in mammalian cells. The settings on record: standard assay; human GluN1/GluN2B, calcium flux (FLIPR), glutamate ~EC80. The essentials: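 Calcium influx followed by FLIPR fluorescence after 5 min compound exposure and a further 5 min co-agonist challenge: 10 μM glycine with glutamate at ~EC80 (standard) or EC40 (HTS).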
(In general: Calcium assays in cells follow changes in intracellular calcium, usually with a dye or a luminescent sensor.)
Take `Cc1ccnc(OCc2cn(-c3cccc(C(C)(F)F)c3)nn2)n1` [Example 296, 2-[[1-[3-(1,1-Difluoroethyl)phenyl]triazol-4-yl]methoxy]-4-methyl-pyrimidine]: the IC50 came out at 0.012 µM.

Regarding `Cc1cnc(OCc2cn(-c3cccc(C(C)(F)F)c3)nn2)nc1` [Example 297, 2-[[1-[3-(1,1-Difluoroethyl)phenyl]triazol-4-yl]methoxy]-5-methyl-pyrimidine], the IC50 was 0.005 µM.

Take `CC(F)(F)c1cccc(-n2cc(COc3ncc(CO)cn3)nn2)c1` [Example 298, [2-[[1-[3-(1,1-Difluoroethyl)phenyl]triazol-4-yl]methoxy]pyrimidin-5-yl]methanol]: the IC50 worked out at 0.034 µM.

As to `CC(F)(F)c1cccc(-n2cc(COc3nccc(CO)n3)nn2)c1` [Example 299, [2-[[1-[3-(1,1-Difluoroethyl)phenyl]triazol-4-yl]methoxy]pyrimidin-4-yl]methanol], the IC50 is 0.049 µM.

With `COCc1ccnc(OCc2cn(-c3cccc(C(C)(F)F)c3)nn2)n1` [Example 300, 2-[[1-[3-(1,1-Difluoroethyl)phenyl]triazol-4-yl]methoxy]-4-(methoxymethyl)pyrimidine], the IC50 was determined as 0.008 µM.

On to `CC(C)(O)c1cnc(OCc2cn(-c3cccc(C(C)(F)F)c3)nn2)nc1` [Example 301, 2-[2-[[1-[3-(1,1-Difluoroethyl)phenyl]triazol-4-yl]methoxy]pyrimidin-5-yl]propan-2-ol], for which the IC50 is 0.119 µM.

On to `CC(F)(F)c1cccc(-n2cc(COc3ncc(C(F)F)cn3)nn2)c1` [Example 302, 2-[[1-[3-(1,1-Difluoroethyl)phenyl]triazol-4-yl]methoxy]-5-(difluoromethyl)pyrimidine], for which the IC50 amounted to 0.002 µM.

Turning to `CC(F)(F)c1cccc(-n2cc(COc3nccc(C(F)F)n3)nn2)c1` [Example 303, 2-[[1-[3-(1,1-Difluoroethyl)phenyl]triazol-4-yl]methoxy]-4-(difluoromethyl)pyrimidine], the IC50 stood at 0.085 µM.

For the molecule `CC(F)(F)c1cccc(-n2cc(COc3nccc(C(F)(F)F)n3)nn2)c1` [Example 304, 2-[[1-[3-(1,1-Difluoroethyl)phenyl]triazol-4-yl]methoxy]-4-(trifluoromethyl)pyrimidine], the IC50 is 0.711 µM.

As for `COc1cnc(OCc2cn(-c3cccc(C(C)(F)F)c3)nn2)nc1` [Example 306, 2-[[1-[3-(1,1-Difluoroethyl)phenyl]triazol-4-yl]methoxy]-5-methoxy-pyrimidine], the IC50 was 0.003 µM.

With `COc1ccnc(OCc2cn(-c3cccc(C(C)(F)F)c3)nn2)n1` [Example 307, 2-[[1-[3-(1,1-Difluoroethyl)phenyl]triazol-4-yl]methoxy]-4-methoxy-pyrimidine], the IC50 was determined as 0.033 µM.

On to `CC(F)(F)c1cccc(-n2cc(COc3ncc(OC(F)F)cn3)nn2)c1` [Example 308, 2-[[1-[3-(1,1-Difluoroethyl)phenyl]triazol-4-yl]methoxy]-5-(difluoromethoxy)pyrimidine], for which the IC50 came out at 0.003 µM.

On to `CC(=O)c1cnc(OCc2cn(-c3cccc(C(C)(F)F)c3)nn2)nc1` [Example 309, 1-[2-[[1-[3-(1,1-Difluoroethyl)phenyl]triazol-4-yl]methoxy]pyrimidin-5-yl]ethanone], for which the IC50 amounted to 0.01 µM.

As for `Cc1nc(OCc2cn(-c3cccc(C(C)(F)F)c3)nn2)ncc1Cl` [Example 312, 5-Chloro-2-[[1-[3-(1,1-difluoroethyl)phenyl]triazol-4-yl]methoxy]-4-methyl-pyrimidine], the IC50 stood at 0.004 µM.

For `Cc1nc(OCc2cn(-c3cccc(C(C)(F)F)c3)nn2)ncc1F` [Example 313, 2-[[1-[3-(1,1-Difluoroethyl)phenyl]triazol-4-yl]methoxy]-5-fluoro-4-methyl-pyrimidine], the IC50 amounted to 0.005 µM.

For `Cc1cnc(OCc2cn(-c3cccc(C(C)(F)F)c3)nn2)nc1N` [Example 314, 2-[[1-[3-(1,1-Difluoroethyl)phenyl]triazol-4-yl]methoxy]-5-methyl-pyrimidin-4-amine], the IC50 turned out to be 0.006 µM.

For `CNc1nc(OCc2cn(-c3cccc(C(C)(F)F)c3)nn2)ncc1F` [Example 315, 2-[[1-[3-(1,1-Difluoroethyl)phenyl]triazol-4-yl]methoxy]-5-fluoro-N-methyl-pyrimidin-4-amine], the IC50 came to 0.158 µM.

Consider `CC(F)(F)c1cccc(-n2cc(COc3nccc(N)n3)nn2)c1` [Example 316, 2-[[1-[3-(1,1-Difluoroethyl)phenyl]triazol-4-yl]methoxy]pyrimidin-4-amine], for which the IC50 is 0.183 µM.

For the molecule `CNc1ccnc(OCc2cn(-c3cccc(C(C)(F)F)c3)nn2)n1` [Example 317, 2-[[1-[3-(1,1-Difluoroethyl)phenyl]triazol-4-yl]methoxy]-N-methyl-pyrimidin-4-amine], the IC50 amounted to 0.026 µM.

For `CN(C)c1ccnc(OCc2cn(-c3cccc(C(C)(F)F)c3)nn2)n1` [Example 318, 2-[[1-[3-(1,1-Difluoroethyl)phenyl]triazol-4-yl]methoxy]-N,N-dimethyl-pyrimidin-4-amine], the IC50 came to 0.026 µM.

`CC(F)(F)c1cccc(-n2cc(COc3ncc(C4CC4)cn3)nn2)c1` [Example 319, 5-Cyclopropyl-2-[[1-[3-(1,1-difluoroethyl)phenyl]triazol-4-yl]methoxy]pyrimidine]: the IC50 was 0.015 µM.

As to `CC(F)(F)c1cccc(-n2cc(COc3ncc(N4CCC4)cn3)nn2)c1` [Example 320, 5-(Azetidin-1-yl)-2-[[1-[3-(1,1-difluoroethyl)phenyl]triazol-4-yl]methoxy]pyrimidine], the IC50 worked out at 0.061 µM.

Regarding `CC(F)(F)c1cccc(-n2cc(COc3ncc(N4CC(F)C4)cn3)nn2)c1` [Example 321, 2-[[1-[3-(1,1-Difluoroethyl)phenyl]triazol-4-yl]methoxy]-5-(3-fluoroazetidin-1-yl)pyrimidine], the IC50 came to 0.104 µM.

Consider `CC(F)(F)c1cccc(-n2cc(COc3nccc(N4CCCC4)n3)nn2)c1` [Example 322, 2-[[1-[3-(1,1-Difluoroethyl)phenyl]triazol-4-yl]methoxy]-4-pyrrolidin-1-yl-pyrimidine], for which the half-inhibitory concentration (IC50) stood at 0.011 µM.

As for `FC(F)Oc1cccc(-n2cc(COc3ncccn3)nn2)c1` [Example 323, 2-[[1-[3-(Difluoromethoxy)phenyl]triazol-4-yl]methoxy]pyrimidine], the IC50 was found to be 0.788 µM.

Take `Fc1cnc(OCc2cn(-c3cccc(OC(F)F)c3)nn2)nc1` [Example 324, 2-[[1-[3-(Difluoromethoxy)phenyl]triazol-4-yl]methoxy]-5-fluoro-pyrimidine]: the IC50 amounted to 0.494 µM.

As for `COc1cnc(OCc2cn(-c3cccc(OC(F)F)c3)nn2)nc1` [Example 325, 2-[[1-[3-(Difluoromethoxy)phenyl]triazol-4-yl]methoxy]-5-methoxy-pyrimidine], the IC50 is 0.027 µM.

Regarding `FC(F)Oc1cccc(-n2cc(COc3ncc(Cl)cn3)nn2)c1` [Example 326, 5-Chloro-2-[[1-[3-(difluoromethoxy)phenyl]triazol-4-yl]methoxy]pyrimidine], the IC50 is 0.069 µM.

Consider `Cc1cnc(OCc2cn(-c3cccc(OC(F)F)c3)nn2)nc1` [Example 327, 2-[[1-[3-(Difluoromethoxy)phenyl]triazol-4-yl]methoxy]-5-methyl-pyrimidine], for which the IC50 stood at 0.015 µM.

In the case of `CCc1cnc(OCc2cn(-c3cccc(OC(F)F)c3)nn2)nc1` [Example 328, 2-[[1-[3-(Difluoromethoxy)phenyl]triazol-4-yl]methoxy]-5-ethyl-pyrimidine], the IC50 amounted to 0.029 µM.

For the molecule `FC(F)Oc1ccc(-n2cc(COc3ncccn3)nn2)cc1` [Example 329, 2-[[1-[4-(Difluoromethoxy)phenyl]triazol-4-yl]methoxy]pyrimidine], the IC50 is 0.854 µM.

As for `Fc1cnc(OCc2cn(-c3ccc(OC(F)F)cc3)nn2)nc1` [Example 330, 2-[[1-[4-(Difluoromethoxy)phenyl]triazol-4-yl]methoxy]-5-fluoro-pyrimidine], the IC50 worked out at 0.752 µM.

With `COc1cnc(OCc2cn(-c3ccc(OC(F)F)cc3)nn2)nc1` [Example 331, 2-[[1-[4-(Difluoromethoxy)phenyl]triazol-4-yl]methoxy]-5-methoxy-pyrimidine], the IC50 was found to be 0.098 µM.

Turning to `FC(F)Oc1ccc(-n2cc(COc3ncc(Cl)cn3)nn2)cc1` [Example 332, 5-Chloro-2-[[1-[4-(difluoromethoxy)phenyl]triazol-4-yl]methoxy]pyrimidine], the IC50 stood at 0.2 µM.

`Cc1cnc(OCc2cn(-c3ccc(OC(F)F)cc3)nn2)nc1` [Example 333, 2-[[1-[4-(Difluoromethoxy)phenyl]triazol-4-yl]methoxy]-5-methyl-pyrimidine]: the IC50 came to 0.087 µM.

Take `CCc1cnc(OCc2cn(-c3ccc(OC(F)F)cc3)nn2)nc1` [Example 334, 2-[[1-[4-(Difluoromethoxy)phenyl]triazol-4-yl]methoxy]-5-ethyl-pyrimidine]: the IC50 is 0.051 µM.

Take `FC(F)(F)Oc1ccc(-n2cc(COc3ncccn3)nn2)cc1` [Example 335, 2-[[1-[4-(Trifluoromethoxy)phenyl]triazol-4-yl]methoxy]pyrimidine]: the IC50 came out at 3.12 µM.

Regarding `COc1cnc(OCc2cn(-c3ccc(OC(F)(F)F)cc3)nn2)nc1` [Example 337, 5-Methoxy-2-[[1-[4-(trifluoromethoxy)phenyl]triazol-4-yl]methoxy]pyrimidine], the IC50 is over 10 µM.

For `FC(F)(F)Oc1ccc(-n2cc(COc3ncc(Cl)cn3)nn2)cc1` [Example 338, 5-Chloro-2-[[1-[4-(trifluoromethoxy)phenyl]triazol-4-yl]methoxy]pyrimidine], the IC50 is 9.05 µM.

Turning to `Cc1cnc(OCc2cn(-c3ccc(OC(F)(F)F)cc3)nn2)nc1` [Example 339, 5-Methyl-2-[[1-[4-(trifluoromethoxy)phenyl]triazol-4-yl]methoxy]pyrimidine], the IC50 was 1.13 µM.

With `CCc1cnc(OCc2cn(-c3ccc(OC(F)(F)F)cc3)nn2)nc1` [Example 340, 5-Ethyl-2-[[1-[4-(trifluoromethoxy)phenyl]triazol-4-yl]methoxy]pyrimidine], the IC50 stood at 0.794 µM.
